“Also recorded” adds a separate entry of the source. Ends that are not written are not given here.
Columns and labels:
[1] = system: ARH; assay: Peptide pulldown, ARH; assay type: binding; settings: desthiobiotin tail peptide on streptavidin beads, RAC-11P lysate, 4°C, 4 h; western blot; two repeats
Description: (§1) Peptide pulldowns were carried out as previously described ([Böttcher et al., 2012]) with the mouse β1 wild-type cytoplasmic tail peptide ([…]-OH) and a scrambled peptide ([…]-OH), mouse β3 wild-type tail peptide ([…]-OH), mouse β5 wild-type tail peptide ([…]-OH), β5 Δ8aa tail peptide ([…]-OH) and scrambled peptide […].
(§2) The tail peptides were synthesized de novo with a desthiobiotin on the N-terminus, coupled to Dynabeads MyOne streptavidin C1 (10 mgml^−1, Invitrogen) and incubated with RAC-11P cell lysates (prepared with M-PER reagent, Thermo Fisher Scientific) at 4°C with rotation for 4 h. After three washes with wash buffer (M-PER diluted 1:1 with PBS), bound proteins were eluted in 2× Laemmli buffer at 95°C for 5 min and separated on an 8% SDS-PAGE gel.

[2] = system: Numb; assay: Peptide pulldown, Numb; assay type: binding; settings: desthiobiotin tail peptide on streptavidin beads, RAC-11P lysate, 4°C, 4 h; western blot; two repeats
Description: as §1, §2

[3] = system: SNX17; assay: Peptide pulldown, SNX17; assay type: binding; settings: desthiobiotin tail peptide on streptavidin beads, RAC-11P lysate, 4°C, 4 h; western blot; two repeats
Description: as §1, §2

[4] = target: T1, Numb-PTB (20-175) (Homo sapiens, UniProt P49757); assay: Microscale thermophoresis (MST), Numb; assay type: binding
T1 construct: A pETNKI-6xhis-3C-Numb-PTB (20-175) construct was expressed in Rosetta2 (DE3) cells; 6xHis-3C (N, cleaved yes); made in house; host or cells: E. coli Rosetta2 (DE3)
T1 sequence (P49757 20-175): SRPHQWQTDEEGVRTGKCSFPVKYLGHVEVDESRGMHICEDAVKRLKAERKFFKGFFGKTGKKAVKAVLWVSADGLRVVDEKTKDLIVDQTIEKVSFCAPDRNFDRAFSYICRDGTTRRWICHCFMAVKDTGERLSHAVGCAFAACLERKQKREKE
Source text: (§3) Fig. 2. Adaptor protein binding to integrin β subunits. (A) Colocalization of integrin chimeras fused to the promiscuous biotin ligase BirA* (green in merge) with vinculin (red; left panels) or clathrin (red; right panels) in PA-JEB/β4 keratinocytes. Actin is shown in blue. Nuclei are stained with DAPI (cyan). Scale bars: 20 μm. (B) Representative western blots of BioID assays performed using the integrin chimeras shown in A. Quantifications of ARH, Numb and talin signal intensities normalized to streptavidin-HRP levels are shown (n=3; bars show mean±s.d.). (C) Representative western blots of pulldown assays (from two repeats) using synthetic integrin β cytoplasmic domains in RAC-11P cell lysates.
A pETNKI-6xhis-3C-Numb-PTB (20-175) construct was expressed in Rosetta2 (DE3) cells for 18 h at 20°C. Cells were lysed (25 mM Tris-HCl pH 8.0, 10 mM imidazole, 200 mM NaCl, 1 mM TCEP, 5 μg/ml DNase) and sonicated, after which insoluble proteins and cell debris were removed by centrifugation (21,000 g for 30 min at 4°C). Soluble lysate was applied to a nickel Sepharose column and beads were washed with wash buffer (lysis buffer without DNase) before protein was eluted in wash buffer supplemented with 250 mM imidazole. The 6xhis tag was cleaved off by his-3C protease during dialysis against 25 mM Tris-HCl pH 8.0, 100 mM NaCl, 1 mM TCEP, 16 h at 4°C. Elution fractions were pooled, diluted with six volumes of 20 mM HEPES pH 7.5, 1 mM TCEP and applied to a 1 ml Resource S cation-exchange column (Cytiva). Protein was eluted in a NaCl gradient (50–700 mM) in 25 mM HEPES (pH 7.5). 6xhis-Numb-PTB was concentrated and further purified by size-exclusion chromatography (SEC70 column, Bio-Rad) in 25 mM Tris-HCl pH 8.0, 200 mM NaCl and 1 mM TCEP.
All MST measurements were performed on a Monolith NT.115 red-blue (Nanotemper, Munich, Germany) using premium-coated capillaries to reduce non-specific interaction of the proteins with the glass surface. […] Data was analyzed using the MO Affinity Analysis Software (Nanotemper).

[5] = target: T2, full-length human ARH (Homo sapiens, UniProt Q5SW96); assay: Microscale thermophoresis (MST), ARH; assay type: binding
T2 construct: The full-length human ARH gene was cloned into the pETNKI-6xhis-3C-LIC vector; made in house; host or cells: E. coli BL21(DE3)
T2 sequence (Q5SW96 1-308): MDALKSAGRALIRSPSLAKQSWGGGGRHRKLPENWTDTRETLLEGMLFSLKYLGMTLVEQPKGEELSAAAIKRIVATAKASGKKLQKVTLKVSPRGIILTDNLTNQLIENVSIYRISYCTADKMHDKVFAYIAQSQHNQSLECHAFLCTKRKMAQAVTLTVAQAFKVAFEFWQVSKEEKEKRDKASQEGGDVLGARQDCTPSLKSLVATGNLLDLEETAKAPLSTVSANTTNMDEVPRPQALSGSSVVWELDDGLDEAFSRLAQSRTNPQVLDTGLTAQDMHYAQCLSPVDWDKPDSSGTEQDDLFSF
Source text: as §3
The full-length human ARH gene was cloned into the pETNKI-6xhis-3C-LIC vector ([Luna-Vargas et al., 2011]) and 6xhis–ARH protein was produced in Bl21(DE3) E. coli cells. Cells were grown at 37°C until an optical density at 600 nm (OD600) of 0.6 was reached. Temperature was reduced to 30°C and protein was expressed upon induction with 0.4 mM IPTG for 3.5 h. Cells were harvested and resuspended in lysis buffer (20 mM HEPES, pH 7.5, 200 mM NaCl, 1 mM TCEP and 5 μg ml^−1 DNase). After sonication, cell debris and insoluble proteins were removed by centrifugation (21,000 g for 30 min). 6xhis–ARH was purified from the soluble fraction using nickel Sepharose beads and eluted in 20 mM HEPES, pH 7.5, 200 mM NaCl, 1 mM TCEP and 250 mM imidazole. Fractions containing 6xhi–ARH were further purified on a SEC650 size exclusion column (Bio-Rad), equilibrated with 20 mM HEPES, pH 7.5, 100 mM NaCl and 1 mM TCEP.
All MST measurements were performed on a Monolith NT.115 red-blue (Nanotemper, Munich, Germany) using premium-coated capillaries to reduce non-specific interaction of the proteins with the glass surface. Both interaction partners (ligand and receptor) were transferred into MST buffer (20 mM Tris-HCl pH 7.5, 200 mM sodium chloride, 1 mM TCEP and 0.05% Tween-20) to avoid artifacts derived from buffer mismatches. […] Data was analyzed using the MO Affinity Analysis Software (Nanotemper).

[6] = target: T3, talin-1 head domain (THD1) (Homo sapiens, UniProt Q9Y490); assay: Microscale thermophoresis (MST), talin-1 head domain; assay type: binding; settings: Atto488-labeled β5 cytoplasmic tail 50–200 nM, 20 mM Tris-HCl pH 7.5, 200 mM NaCl, 1 mM TCEP, 0.05% Tween-20, mean±s.d., n≥5
T3 construct: pCoofy17-THD1 (1-405) constructs were transformed into Rosetta2(DE3) cells; His-SUMO (N, cleaved yes); made in house; host or cells: E. coli Rosetta2(DE3)
Source text: as §3, with “lysates. […]” for “lysates.”
pCoofy17-THD1 (1-405) constructs were transformed into Rosetta2(DE3) cells and his-SUMO-THD1 proteins were expressed for 16 h at 20°C after induction with 0.4 mm IPTG. Cells were harvested and resuspended in 25 mM Tris-HCl pH 8.0, 10 mM imidazole, 200 mM NaCl, 1 mM TCEP and 5 μg ml^−1 DNase, and lysed by sonication. […]
All MST measurements were performed on a Monolith NT.115 red-blue (Nanotemper, Munich, Germany) using premium-coated capillaries to reduce non-specific interaction of the proteins with the glass surface. […] Data was analyzed using the MO Affinity Analysis Software (Nanotemper). […]

[7] = target: Atto488-labeled integrin β5 cytoplasmic tail; assay: MST; 50–200 nM Atto488-labeled integrin-β cytoplasmic tail as ligand; 20 mM Tris-HCl pH 7.5, 200 mM sodium chloride, 1 mM TCEP, 0.05% Tween-20; Monolith NT.115
[8] = system: cytoskeletal or clathrin adaptor proteins; assay: Peptide pulldown, cytoskeletal or clathrin adaptor proteins; assay type: binding; settings: desthiobiotin tail peptide on streptavidin beads, RAC-11P lysate, 4°C, 4 h; western blot; two repeats
Description: as §1, §2

[9] = concentration range tested up to 75 µM for β3
[10] = MST, Atto488-labeled β5 cytoplasmic tail 50–200 nM, 20 mM Tris-HCl pH 7.5, 200 mM NaCl, 1 mM TCEP, 0.05% Tween-20, mean±s.d., n≥5

T3 sequence (Q9Y490 1-405): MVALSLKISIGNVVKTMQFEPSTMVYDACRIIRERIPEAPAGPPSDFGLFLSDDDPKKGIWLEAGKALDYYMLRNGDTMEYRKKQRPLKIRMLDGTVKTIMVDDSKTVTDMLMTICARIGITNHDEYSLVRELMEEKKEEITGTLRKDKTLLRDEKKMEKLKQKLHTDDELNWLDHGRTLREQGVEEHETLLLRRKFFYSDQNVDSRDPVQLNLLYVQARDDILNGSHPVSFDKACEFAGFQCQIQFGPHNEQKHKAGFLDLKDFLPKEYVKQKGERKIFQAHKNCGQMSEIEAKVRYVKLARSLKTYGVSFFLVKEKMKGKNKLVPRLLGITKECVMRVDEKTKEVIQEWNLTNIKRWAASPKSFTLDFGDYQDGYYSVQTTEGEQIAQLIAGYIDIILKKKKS

## EYEFEPDKVDTGAKGTKMAKNEKKFRNYTVHNIWESRKVAP-OH [β1 scrambled peptide, scrambled β1 tail peptide, control, reference compound]
[1]
  interaction with ARH in pulldown: hardly
[2]
  interaction with Numb in pulldown: some background binding

## HDRKEFAKFEEERARAKWDTANNPLYKEATSTFTNITYRGT-OH [β3, synthetic integrin β3 cytoplasmic tail peptide]
[1]
  interaction with ARH in pulldown: not β1 and β3, bind to Numb and ARH
[3]
  interaction with SNX17 in pulldown: interacted strongly
[4]; [9]
  binding to Numb by MST (β3): no binding; also recorded: unable to detect binding
[5]; [9]
  binding to ARH by MST (β3): no binding; also recorded: unable to detect binding
[2]
  interaction with Numb in pulldown: not β1 and β3, bind to Numb and ARH

## DRREFAKFQSERSRARYEMASNPLYRKPISTHTVDFAFNKFNKSYNGSVD [β5]
[4]; [10]
  Kd: 28.5 ± 7.7 µM
[5]; [10]
  Kd: 5.6 ± 1.4 µM
[6]
  Kd: 41.7 ± 9.5 µM

## talin-1 head domain (THD1) (from UniProt P26039 1-405) (domain or fragment)
[7]
  Kd: 41.7 µM

## DRREFAKFQSERSRARYEMASNPLYRKPISTVVNKSYNGSVD-OH [β5 Δ8 aa, β5 tail peptide carrying a deletion of 8 amino acids between the NPxY and NxxY motifs]
[3]
  interaction with SNX17 in pulldown: abrogated
[8]
  binding of cytoskeletal or clathrin adaptor proteins in pulldown: prevented neither the clustering of β5 in FCLs ([Zuidema et al., 2018]) nor the binding of cytoskeletal or clathrin adaptor proteins to the β5 tail
[2]
  interaction with Numb in pulldown: binds considerably more

B1: Numb-PTB (20-175) (domain or fragment)
chain: T1 sequence (P49757 20-175)
[7]
  Kd: 28.5 µM

B2: 6xhis–ARH (natural protein)
chain: T2 sequence (Q5SW96 1-308)
[7]
  Kd: 5.6 µM

— PMC9234671, “Molecular determinants of αVβ5 localization in flat clathrin lattices – role of αVβ5 in cell adhesion and proliferation” (Journal of Cell Science, 2022)
